Data on three molecules can be found in patent US11696903B2, “Compounds and methods for scavenging dicarbonyl electrophiles” (VANDERBILT UNIVERSITY, priority 2019, dated 2023).

Test [1] can be described thus: Reaction rate of scavengers with dicarbonyl electrophiles / LG relative to lysine. The conditions noted are these: faster than lysine. An excerpt:
Under conditions such as inflammation and/or accumulated mutations, epithelial cells and adjacent immune cells express genes encoding enzymes involved in carcinogenesis, such as prostaglandin-endoperoxide synthase (PGHS2; COX2), NADPH oxidases, and spermine oxidase. The products of these enzymes (prostaglandins, O2D, and H2O2 plus 3-aminopropanal) lead to formation of dicarbonyl electrophiles: levuglandins (LGs), malondialdehyde (MDA), 4-oxo-nonenal (4-O NE), and acrolein. Electrophiles may lead to immune dysfunction and neoplastic risk by forming adducts with proteins and DNA11-15. However, the role of these reactive aldehydes in colon carcinogenesis is previously unknown. The present inventors have discovered that the level of LG-protein adducts is increased in the colon tissues of i) human ulcerative colitis (UC), colitis-associated carcinogenesis (CAC), and CRC; ii) mice treated with azoxymethane-dextran sulfate sodium (AOM-DSS), a model of CAC; and iii) transgenic mice with a tamoxifen-inducible disruption of Apc using the colon-specific, caudal type homeobox 2 (CDX2) Cre (CDX2P-CreERT2;Apcff), which recapitulates sporadic/genetically-driven CRC. […]

A further test concerns oxidative damage. The conditions noted are these: mice; cited from earlier work.
A further test relates to lysyl-LG adducts. Description: Lysyl-LG adducts in gastric tissues of H. pylori-infected mice (LC/ESI/MS/MS). Format: in vivo. The conditions noted are these: H. pylori infected mice treated for 8 weeks. As for the experimental part: FIGS. 15A, 15B, and 15C are graphs showing C57BL/6 (A) or INS-GAS mice (B) were infected for 8 weeks with H. pylori PMSS1. Lysyl-LG adducts were measured in the gastric tissues by LC/ESI/MS/MS. *P<0.05. (C) Lysyl-LG adducts concentration was determined in AGS cells infected (plain bars) or not (open bars) with H. pylori PMSS1 for 24 h, in the presence or absence of EtSA. *P<0.05 vs. uninfected cells. § P<0.05 vs. infected cells without EtSA.
FIG. 17 is a graph showing reduction in the concentration of lysyl-levuglandin adducts in the stomachs of H. pylori infected mice treated with 2-hydroxybenzylamine for 8 weeks.
As discussed further in the Examples, the human gastric epithelial cell line AGS was infected with Hp PMSS1±10 mM EtSA. FVB/N insulin-gastrin (INS-GAS) mice and Mongolian gerbils were infected for 8 wk with Hp PMSS1 and 7.13, respectively; EtSA (0.75% in water) was given to animals beginning one wk post-infection. Lys-LG adducts, a marker of electrophile reactions, and EtSA were quantified by LC/EST/MS/MS. Histology was analyzed on H&E staining. DNA damage was evaluated by pH2AX staining. Hp colonization was quantified by culture. Mucosal immune responses were determined by RNA profiling and by Luminex assay. Mice were imaged using PET/CT with ^18F-FDG (inflammation marker) and ^18F—NaF (tumor marker). […]

Test [2] concerns LG-histone adducts in A549 cells. Nature of the test: LG-lysyl adduct formation on histones in A549 cells (LC/ESI/MS/MS). Format: cell-based, human. The conditions noted are these: COX-2-stimulated A549, 20 μM AA, 50 μM indomethacin preincubated 45 min. As for the experimental part: FIGS. 11A, 11B, 11C, 11D, 11E, and 11F are a series of graphs showing that LG-lysine adducts of histones are found in cells and tissue, dependent on COX-2 activity. RAW264.7 mouse macrophage (A) and A549 human lung carcinoma (C) cells were stimulated to express COX-2, then given 20 μM arachidonic acid (AA) or vehicle. A subgroup of cells was preincubated 45 min with 50 μM indomethacin. As a measure of COX activity, PGE2 was determined by GC/MS from cell media prior to lysis (B and D). Nuclei were isolated, and histones were extracted and digested to individual amino acids prior to LC/EST/MS/MS analysis. *, p<0.05; ***, p<0.001 by ANOVA followed by Tukey's post-test (n≥5). (E). Histones were extracted from nuclei of rat liver, and analyzed as above for LG-lactam adduct. COX-2 protein was analyzed by Western blotting and plotted against lactam adduct levels. Each point corresponds to 1 liver, and shown is the line of regression (r^2=0.7237). Pearson r=0.8507; two-tailed p=0.0152. […]
(A). […] Histone proteins were analyzed by LC/ESI/MS/MS for LG-lysyl lactam adduct, n=2. (B) Stimulated A549 cells were pretreated with 30, 300, or 1000 μM EtSA prior to 1 h with 20 μM AA, and histones analyzed for LG-lysyl adduct. *, p<0.05 by one-way ANOVA followed by Dunnett's multiple comparisons post-test (n=3-5). […] Media was analyzed by GC/MS for PGE2 (n=3). […]

For test [3], the system named is LG-histone adducts in RAW264.7 cells. Description: LG-lysyl adduct formation on histones in RAW264.7 cells (LC/ESI/MS/MS). Format: cell-based, mouse. As for the experimental part: FIGS. 11A, 11B, 11C, 11D, 11E, and 11F are a series of graphs showing that LG-lysine adducts of histones are found in cells and tissue, dependent on COX-2 activity. RAW264.7 mouse macrophage (A) and A549 human lung carcinoma (C) cells were stimulated to express COX-2, then given 20 μM arachidonic acid (AA) or vehicle. A subgroup of cells was preincubated 45 min with 50 μM indomethacin. As a measure of COX activity, PGE2 was determined by GC/MS from cell media prior to lysis (B and D). Nuclei were isolated, and histones were extracted and digested to individual amino acids prior to LC/EST/MS/MS analysis. *, p<0.05; ***, p<0.001 by ANOVA followed by Tukey's post-test (n≥5). (E). Histones were extracted from nuclei of rat liver, and analyzed as above for LG-lactam adduct. COX-2 protein was analyzed by Western blotting and plotted against lactam adduct levels. Each point corresponds to 1 liver, and shown is the line of regression (r^2=0.7237). Pearson r=0.8507; two-tailed p=0.0152. (F) LC-MS chromatograph of histones isolated from a rat liver with relatively high COX-2 expression (COX-2 band intensity of 117 arbitrary units).
(A). Scavengers were screened in RAW264.7 cells for the ability to decrease LG adduct formation on histones. Scavengers used were glucosamine (GA), 3-methoxysalicylamine (3-MoSA), pentylpyridoxamine (PPM), and 5-ethylsalicylamine (EtSA). Cells were stimulated to express COX-2, pretreated 45 min. with 500 μM scavenger or vehicle (H2O), and given 20 μM AA for 1 h before lysing and extracting histones. Histone proteins were analyzed by LC/ESI/MS/MS for LG-lysyl lactam adduct, n=2. (B) Stimulated A549 cells were pretreated with 30, 300, or 1000 μM EtSA prior to 1 h with 20 μM AA, and histones analyzed for LG-lysyl adduct. *, p<0.05 by one-way ANOVA followed by Dunnett's multiple comparisons post-test (n=3-5). (C). A549 cells were stimulated, pretreated 45 min. with 1000 μM EtSA or H2O vehicle, and given 20 μM AA for 1 h. Media was analyzed by GC/MS for PGE2 (n=3). There was no effect on PGE2 production at lower doses of EtSA (data not shown).
To stimulate COX-2 expression, A549 or RAW264.7 cells were treated overnight with 5 ng/mL IL-1B (A549) or 10 μg/mL LPS and 10 U/mL IFNγ (RAW264.7) in serum-free medium. When indicated, cells were pretreated with indomethacin, aldehyde scavengers (glucosamine, 3-MoSA, PPM or EtSA), or vehicle (ethanol for indomethacin, H2O for scavengers) for 45 min, and then given 20 μM arachidonic acid (AA) or DMSO vehicle for 1 h before lysing.
Cultured cells were lysed in hypotonic buffer (10 mM Tris/10 mM NaCl/3 mM MgCl2) containing 1 mM pyridoxamine and 100 μM indomethacin to prevent the artifactual formation of LGE2 during the lytic process. […] Protein concentration was determined using the method of Bradford. […]

Regarding `NCc1ccccc1O` [2-HOBA, 2-hydroxybenzylamine], the “rate of reaction with dicarbonyl electrophiles” value in test [1] was 3 orders of magnitude. The “oxidative damage in models of hypertension and Alzheimer's disease” value with oxidative damage is “protects mice from oxidative damage”. Also, the “concentration of lysyl-levuglandin adducts in the stomachs” value in the test with lysyl-LG adducts is given as “reduction”.
`COc1ccc2c(c1)c(CC(=O)O)c(C)n2C(=O)c1ccc(Cl)cc1` [indomethacin, reference compound]: the LG-histone adduct formation result in test [2] is reported as “blocked”; in test [3] (COX-2-stimulated RAW264.7, 20 μM AA, 50 μM indomethacin preincubated 45 min), “blocked”.
As to pentylpyridoxamine [reference compound], in test [3] (stimulated RAW264.7, 500 μM scavenger 45 min, 20 μM AA 1 h), the “LG adduct formation on histones” value is listed as “partially inhibited”.
